Seven compounds from US20250051409A1, “MODULATORS OF PHOSPHATIDYLSERlNE DECARBOXYLASE AND USE THEREOF” (THE NATIONAL INSTITUTE FOR BIOTECHNOLOGY IN THE NEGEV LTD., priority 2021, published 2025) can be followed below.

Square brackets hold non-standard residues; d marks the D form. Peptide text beside a SMILES is read from it. Dmt = Cc1cc(O)cc(C)c1C[C@H](N)C(=O)O; Orn = NCCC[C@H](N)C(=O)O

For this assay, the system named is A549 lung cancer cell. The assay is classed as cell-based, human. The conditions noted are these: 24 h. As for the experimental part: (B) Inhibition of PSD activity by the 2F3 (●) or 1C11 (◯) peptide. PSD activity was measured using the DSB-3 method. (C-E) Cell proliferation inhibition following incubation of A549 cells with the indicated mitochondria- or nuclear-targeted peptides for 24 h in a serum-free medium, and cell proliferation was assayed using the SRB method. Results are the means±SEM (n=3). (F) A549 cells were incubated for 90 min with 5 μM of the mitochondria- or nuclear targeted FITC-labelled peptides, immunostained with anti-SMAC antibodies and with DAPI and visualized by confocal microscope for subcellular localization. Arrows indicates nuclear (n=3). Scale bars represent 20
(A) A549 cells were incubated with the indicated concentration of 1C11-HTRA2-derived peptide targeted to the mitochondrion with the targeting sequence added to the N-terminus (N-Ter) or the C-terminus (C-Ter). (B) Mitochondrion targeted 1C11-HTRA2-derived peptide was modified by replacing the three amino acids in the C or the N-terminus of the peptide, or all amino acids in the peptide with the D-confirmation of the amino acid (underlined amino acids)). Following 24 h incubation in a serum-free medium, cell proliferation was assayed using the SRB method. (C) The concentration required for 50% inhibition of cell proliferation (IC50) is presented. Results are the means±SEM (n=3).
A549 (human lung adenocarcinoma epithelial cell), HEK-293T (human embryonic kidney), H1563/CRL-5875 (non-small cell lung cancer adenocarcinoma), H-358 (bronchioalveolar carcinoma), HaCaT (spontaneously transformed aneuploid immortal human skin keratinocyte), and WI-38 (fibroblast-like fetal lung cell) cell lines were purchased from the American Type Culture Collection (ATCC) (Manassas, VA), and were maintained as per ATCC instructions. Cells were maintained in ATCC recommended medium at 37° C. in an incubator with 5% CO2. Cell lines were routinely tested for Mycoplasma contamination. For SMAC overexpression, cells were seeded (200,000 cells/well) on 6-well culture plates and allowed to adhere overnight. These adhered cells were transfected with PVMV3.1-SMAC or empty vector using the JetPRIME transfection reagent (Illkirch, France), according to the manufacturers' instructions. Medium was changed 6 h post transfection, and cells were harvested 48 h post transfection.
Cells were seeded in 96-well cell culture plates (8,000/well) and allowed to grow for 48 h. After washing with PBS, cells were fixed with 10% trichloroacetic acid, and stained with SRB for 20 min. Excess SRB were removed, and cells were washed with 1% acetic acid. SRB extraction was done using 100 mM Tris-base, and absorbance at 510 nm was determined using an Infinite M1000 plate reader (Tecan, Mannedorf, Switzerland).
As for `Cc1cc(O)cc(C)c1C[C@H](NC(=O)[C@@H](CCCNC(=N)N)NC(=O)[C@H](CC(C)C)NC(=O)[C@H](CCCNC(=N)N)NC(=O)[C@H](C)NC(=O)[C@H](Cc1c[nH]c2ccccc12)NC(=O)[C@H](CC(C)C)NC(=O)[C@H](CO)NC(=O)[C@@H]1CCCN1C(=O)[C@@H](NC(=O)CNC(=O)[C@H](Cc1ccc(O)cc1)NC(=O)[C@@H](NC(=O)[C@@H](NC(=O)[C@H](CCCNC(=N)N)NC(=O)[C@H](C)NC(=O)[C@H](CCCNC(=N)N)NC(=O)[C@@H]1CCCN1C(=O)[C@H](CC(=O)O)NC(=O)[C@H](CO)NC(=O)[C@@H](NC(=O)CNC(=O)[C@H](CO)NC(=O)[C@@H](NC(=O)[C@H](CC(C)C)NC(=O)[C@H](CC(C)C)NC(=O)[C@H](C)N)[C@@H](C)O)[C@@H](C)O)C(C)C)[C@@H](C)O)[C@@H](C)O)C(=O)N[C@@H](CCCN)C(=O)N[C@@H](Cc1ccccc1)C(N)=O` [1C11-D-Arg-Dmt-Orn-Phe] (H-ALLTSGTSDPRARVTYGTPSLWARL[dR][Dmt][Orn]F-NH2; N-terminus and C-terminus assumed), the IC50 worked out at 30.3 ± 5.5 µM.
Consider `CC(C)C[C@H](NC(=O)[C@H](C)N)C(=O)N[C@@H](CC(C)C)C(=O)N[C@H](C(=O)N[C@@H](CO)C(=O)NCC(=O)N[C@H](C(=O)N[C@@H](CO)C(=O)N[C@@H](CC(=O)O)C(=O)N1CCC[C@H]1C(=O)N[C@@H](CCCNC(=N)N)C(=O)N[C@@H](C)C(=O)N[C@@H](CCCNC(=N)N)C(=O)N[C@H](C(=O)N[C@H](C(=O)N[C@@H](Cc1ccc(O)cc1)C(=O)NCC(=O)N[C@H](C(=O)N1CCC[C@H]1C(=O)N[C@@H](CO)C(=O)N[C@@H](CC(C)C)C(=O)N[C@@H](Cc1c[nH]c2ccccc12)C(=O)N[C@@H](C)C(=O)N[C@@H](CCCNC(=N)N)C(=O)N[C@@H](CC(C)C)C(=O)N[C@@H](CCCNC(=N)N)C(=O)N[C@H](CCCNC(=N)N)C(=O)N[C@@H](CCCNC(=N)N)C(=O)N[C@@H](CCCCN)C(=O)O)[C@@H](C)O)[C@@H](C)O)C(C)C)[C@@H](C)O)[C@@H](C)O` [1C11-R-{D-Arg}-RK] (H-ALLTSGTSDPRARVTYGTPSLWARLR[dR]RK-OH; N-terminus and C-terminus assumed), for which it took 30 ± 3.8 µM to reach half-maximal inhibition (IC50).
Regarding `CC[C@H](C)[C@H](NC(=O)[C@@H](NC(=O)[C@H](CC(N)=O)NC(=O)[C@H](C)NC(=O)[C@H](CCCCN)NC(=O)[C@H](CC(C)C)NC(=O)[C@H](CC(C)C)NC(=O)[C@H](CC(N)=O)NC(=O)[C@H](CC(=O)O)NC(=O)[C@H](CC(C)C)NC(=O)[C@@H](NC(=O)[C@@H]1CCCN1C(=O)[C@H](CC(C)C)NC(=O)[C@@H](NC(=O)[C@H](CS)NC(=O)[C@@H](NC(=O)[C@H](CC(C)C)NC(=O)[C@H](CCC(N)=O)NC(=O)[C@H](CCC(N)=O)NC(=O)[C@@H](N)Cc1ccccc1)[C@@H](C)O)C(C)C)[C@@H](C)CC)C(C)C)C(=O)N[C@@H](CC(N)=O)C(=O)N[C@@H](CCCCN)C(=O)N[C@@H](CCC(N)=O)C(=O)N[C@@H](CCC(=O)O)C(=O)N[C@@H](Cc1c[nH]cn1)C(=O)N[C@H](CCCNC(=N)N)C(=O)N[C@@H](Cc1c(C)cc(O)cc1C)C(=O)N[C@@H](CCCN)C(=O)N[C@@H](Cc1ccccc1)C(N)=O` [1E14-D-Arg-Dmt-Orn-Phe] (H-FQQLTCVLPILDNLLKANVINKQEH[dR][Dmt][Orn]F-NH2; N-terminus and C-terminus assumed), the half-inhibitory concentration (IC50) was above 100 µM.
Then `CC[C@H](C)[C@H](NC(=O)[C@@H]1CCCN1C(=O)[C@H](CO)NC(=O)[C@H](CO)NC(=O)[C@@H](NC(=O)[C@H](CO)NC(=O)[C@H](CC(C)C)NC(=O)[C@H](C)N)[C@@H](C)O)C(=O)N1CCC[C@H]1C(=O)N[C@@H](CO)C(=O)N[C@H](C(=O)N1CCC[C@H]1C(=O)N[C@@H](CCC(N)=O)C(=O)N[C@@H](CO)C(=O)N[C@@H](CCC(N)=O)C(=O)N[C@@H](C)C(=O)N[C@@H](CCC(N)=O)C(=O)N1CCC[C@H]1C(=O)N[C@@H](CCC(N)=O)C(=O)N[C@H](C(=O)NCC(=O)N[C@@H](CO)C(=O)NCC(=O)N[C@@H](C)C(=O)N[C@@H](CO)C(=O)N[C@H](CCCNC(=N)N)C(=O)N[C@@H](Cc1c(C)cc(O)cc1C)C(=O)N[C@@H](CCCN)C(=O)N[C@@H](Cc1ccccc1)C(N)=O)[C@@H](C)O)C(C)C` [2F3-D-Arg-Dmt-Orn-Phe] (H-ALSTSSPIPSVPQSQAQPQTGSGAS[dR][Dmt][Orn]F-NH2; N-terminus and C-terminus assumed), with 19.6 ± 0.4 µM.
For `CC[C@H](C)[C@H](NC(=O)[C@@H]1CCCN1C(=O)[C@H](CO)NC(=O)[C@H](CO)NC(=O)[C@@H](NC(=O)[C@H](CO)NC(=O)[C@H](CC(C)C)NC(=O)[C@H](C)N)[C@@H](C)O)C(=O)N1CCC[C@H]1C(=O)N[C@@H](CO)C(=O)N[C@H](C(=O)N1CCC[C@H]1C(=O)N[C@@H](CCC(N)=O)C(=O)N[C@@H](CO)C(=O)N[C@@H](CCC(N)=O)C(=O)N[C@@H](C)C(=O)N[C@@H](CCC(N)=O)C(=O)N1CCC[C@H]1C(=O)N[C@@H](CCC(N)=O)C(=O)N[C@H](C(=O)NCC(=O)N[C@@H](CO)C(=O)NCC(=O)N[C@@H](C)C(=O)N[C@@H](CO)C(=O)N[C@@H](CCCNC(=N)N)C(=O)N[C@H](CCCNC(=N)N)C(=O)N[C@@H](CCCNC(=N)N)C(=O)N[C@@H](CCCCN)C(=O)O)[C@@H](C)O)C(C)C` [2F3-R-{D-Arg}-RK] (H-ALSTSSPIPSVPQSQAQPQTGSGASR[dR]RK-OH; N-terminus and C-terminus assumed), it took 29.6 ± 0.6 µM to reach half-maximal inhibition (IC50).
Next, `Cc1cc(O)cc(C)c1C[C@H](NC(=O)[C@@H](CCCNC(=N)N)NC(=O)[C@H](CCC(N)=O)NC(=O)[C@H](CCC(N)=O)NC(=O)[C@H](CO)NC(=O)[C@H](CC(C)C)NC(=O)[C@H](Cc1ccccc1)NC(=O)[C@H](CC(=O)O)NC(=O)[C@H](Cc1ccccc1)NC(=O)[C@H](C)NC(=O)[C@H](CC(C)C)NC(=O)[C@H](CC(=O)O)NC(=O)[C@H](CO)NC(=O)[C@H](CO)NC(=O)[C@H](Cc1c[nH]cn1)NC(=O)[C@H](CC(=O)O)NC(=O)[C@@H](NC(=O)CNC(=O)[C@H](CCC(N)=O)NC(=O)[C@H](Cc1ccccc1)NC(=O)[C@H](C)NC(=O)[C@H](CCCNC(=N)N)NC(=O)[C@H](CO)NC(=O)[C@H](CO)NC(=O)[C@H](CCC(N)=O)NC(=O)[C@H](CC(N)=O)NC(=O)[C@@H]1CCCN1)[C@@H](C)O)C(=O)N[C@@H](CCCN)C(=O)N[C@@H](Cc1ccccc1)C(N)=O` [2I8-(D-Arg)-Dmt-Orn-Phe-NH2] (H-PNQSSRAFQGTDHSSDLAFDFLSQQ[dR][Dmt][Orn]F-NH2; N-terminus assumed): 30.2 ± 3.6 µM; `CC(C)C[C@H](NC(=O)[C@H](CC(=O)O)NC(=O)[C@H](CO)NC(=O)[C@H](CO)NC(=O)[C@H](Cc1c[nH]cn1)NC(=O)[C@H](CC(=O)O)NC(=O)[C@@H](NC(=O)CNC(=O)[C@H](CCC(N)=O)NC(=O)[C@H](Cc1ccccc1)NC(=O)[C@H](C)NC(=O)[C@H](CCCNC(=N)N)NC(=O)[C@H](CO)NC(=O)[C@H](CO)NC(=O)[C@H](CCC(N)=O)NC(=O)[C@H](CC(N)=O)NC(=O)[C@@H]1CCCN1)[C@@H](C)O)C(=O)N[C@@H](C)C(=O)N[C@@H](Cc1ccccc1)C(=O)N[C@@H](CC(=O)O)C(=O)N[C@@H](Cc1ccccc1)C(=O)N[C@@H](CC(C)C)C(=O)N[C@@H](CO)C(=O)N[C@@H](CCC(N)=O)C(=O)N[C@@H](CCC(N)=O)C(=O)N[C@@H](CCCNC(=N)N)C(=O)N[C@H](CCCNC(=N)N)C(=O)N[C@@H](CCCNC(=N)N)C(=O)N[C@@H](CCCCN)C(=O)O` [2I8-R-{D-Arg}-RK] (H-PNQSSRAFQGTDHSSDLAFDFLSQQR[dR]RK-OH; N-terminus and C-terminus assumed): 19.7 ± 4.3 µM.
